Laboratory results taken from ChEMBL document CHEMBL1201862, “PubChem BioAssay data set” (2004).
Active and inactive are the calls of the source.

Columns and labels:
[1] = NIH-3T3 fibroblast cytotoxicity, dose response, cytotoxicity control, cell-based, fluorescence, Alamar Blue, secondary assay (AID 2327); format: functional;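 note: NIH-3T3 mouse fibroblasts cultured with fluconazole at 8 µg/mL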
[2] = target: Heat shock protein HSP 90-alpha (Homo sapiens, UniProt P07900); format: functional, organism-based
INS1 = assay: beta cell apoptosis inhibitors, cytokine rescue, dose response, luminescence, retest (AID 449756); format: functional, cell-based; conditions: Rattus norvegicus;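 note: cell death triggered by IL-1 beta plus TNF-alpha plus IFN-gamma mixture; protective hits raise ATP signal compared with cytokine alone wells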
[3] = C. albicans growth with fluconazole, confirmation, fluorescence, retest (AID 2467); format: functional, cell-based
[4] = target: T1, Replicative DNA helicase DnaB (Mycobacterium tuberculosis, UniProt P9WMR3); assay: DnaB intein splicing inhibitors, dose response, biochemical, cell-free fluorescence (AID 449749); format: functional
T1 sequence (P9WMR3 whole entry): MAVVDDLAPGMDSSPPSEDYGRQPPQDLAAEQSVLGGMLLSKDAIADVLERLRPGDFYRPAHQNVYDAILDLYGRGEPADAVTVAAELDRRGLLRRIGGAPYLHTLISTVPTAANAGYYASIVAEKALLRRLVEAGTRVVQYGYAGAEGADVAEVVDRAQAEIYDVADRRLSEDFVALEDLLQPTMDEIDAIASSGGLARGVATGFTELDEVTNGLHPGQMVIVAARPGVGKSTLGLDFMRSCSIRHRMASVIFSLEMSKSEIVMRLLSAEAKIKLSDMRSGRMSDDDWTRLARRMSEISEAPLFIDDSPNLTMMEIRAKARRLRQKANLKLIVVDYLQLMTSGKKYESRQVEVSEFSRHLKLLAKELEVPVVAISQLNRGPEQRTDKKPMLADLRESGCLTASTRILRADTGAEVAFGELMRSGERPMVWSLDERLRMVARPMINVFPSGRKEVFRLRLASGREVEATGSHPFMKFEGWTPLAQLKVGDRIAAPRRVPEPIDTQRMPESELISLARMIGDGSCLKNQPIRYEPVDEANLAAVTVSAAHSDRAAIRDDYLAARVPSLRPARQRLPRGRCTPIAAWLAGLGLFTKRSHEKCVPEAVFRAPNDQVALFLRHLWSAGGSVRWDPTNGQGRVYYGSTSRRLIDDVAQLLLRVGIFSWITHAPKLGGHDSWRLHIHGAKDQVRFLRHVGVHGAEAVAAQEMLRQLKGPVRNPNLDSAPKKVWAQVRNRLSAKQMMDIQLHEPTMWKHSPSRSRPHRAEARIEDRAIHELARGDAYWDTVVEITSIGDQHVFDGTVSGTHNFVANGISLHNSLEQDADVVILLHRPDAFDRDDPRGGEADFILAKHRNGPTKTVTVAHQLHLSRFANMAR

Protein RecA = target: T2, Protein RecA (Mycobacterium tuberculosis, UniProt P9WHJ3); assay: Fluorescence Cell-Free Homogeneous Dose Retest to Identify Inhibitors of RecA-Intein Splicing Activity. [Related pubchem assays (depositor defined):AID2097, AID2223, AID489010, AID492950]; format: functional
T2 sequence (P9WHJ3 whole entry): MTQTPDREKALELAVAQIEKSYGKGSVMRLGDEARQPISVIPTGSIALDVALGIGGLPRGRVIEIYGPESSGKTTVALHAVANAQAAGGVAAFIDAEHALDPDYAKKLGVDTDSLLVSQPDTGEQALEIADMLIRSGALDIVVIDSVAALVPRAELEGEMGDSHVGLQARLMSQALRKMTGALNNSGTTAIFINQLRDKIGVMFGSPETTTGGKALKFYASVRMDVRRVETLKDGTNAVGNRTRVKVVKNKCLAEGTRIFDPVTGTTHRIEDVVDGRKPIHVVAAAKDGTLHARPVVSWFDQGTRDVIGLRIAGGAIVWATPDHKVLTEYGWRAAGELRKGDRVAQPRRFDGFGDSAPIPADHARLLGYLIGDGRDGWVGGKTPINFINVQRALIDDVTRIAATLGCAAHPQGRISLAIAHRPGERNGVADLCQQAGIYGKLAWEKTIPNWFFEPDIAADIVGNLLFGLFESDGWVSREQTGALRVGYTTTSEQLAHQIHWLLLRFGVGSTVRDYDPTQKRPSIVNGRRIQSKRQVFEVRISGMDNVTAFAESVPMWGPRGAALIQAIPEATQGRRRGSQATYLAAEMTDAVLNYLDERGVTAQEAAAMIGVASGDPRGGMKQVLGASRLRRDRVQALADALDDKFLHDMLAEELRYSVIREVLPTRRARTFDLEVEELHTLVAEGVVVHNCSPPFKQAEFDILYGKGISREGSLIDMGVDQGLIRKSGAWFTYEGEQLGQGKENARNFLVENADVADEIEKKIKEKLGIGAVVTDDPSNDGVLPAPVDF

Row | SMILES | EC50 [1] | AC50 [2] | AC50 (INS1) | EC50 [3] | AC50 [4] | EC50 (Protein RecA)
1 | CC(C)CC(=O)NC(c1cccs1)c1ccc2cccnc2c1O (stereo not given) | 24.3 µM (active) | 3.78 µM (active) | 0.862 µM (active) | 0.58 µM (active) |  | 
2 | CCOC(=O)c1ccc(NC2=CC(=O)C(=O)c3ccccc32)cc1 |  |  |  |  | > 380 µM (inactive) | 3.24 µM (active)
3 | OC(CNCCC1C=Nc2ccccc21)Cn1c2ccc(Cl)cc2c2cc(Cl)ccc21 (stereo not given) | 14.3 µM (inconclusive) | 8.15 µM (active) | 7.32 µM (active) | > 38 µM (not active) | 6.51 µM (active) | 9.52 µM (active)
4 | Cc1ccccc1-c1cc2c(nn1)-c1ccccc1C2=O |  |  |  |  | 6.85 µM (active) | 0.891 µM (active)
5 | CCCCCCCCCCCCCCCC[N+](C)(C)C | > 150 µM (inconclusive) | 8.33 µM (active) | 4.84 µM (active) | > 38 µM (not active) | 4.78 µM (active) | 14.7 µM (active)
